In assay [1] the target is endopeptidase 24.15 (Homo sapiens, UniProt P52888). Particulars: cited from earlier work.
The target in assay [2] is endopeptidase 24.16 (Homo sapiens, UniProt Q9BYT8). The conditions noted are these: Dauch et al, cited from earlier work.
The test system of a further assay is endopeptidase 24.11. Briefly: Effect on endopeptidase 24.11, hydrolysis of neurotensin (Example 15). Format: biochemical. The protocol:
The hydrolysis of 2 nM of neurotensin is followed by 9 μg of endopeptidase 24.11 under the conditions described in example 3.

Assay [3] has as its target T1, endopeptidase 24.16 (Rattus norvegicus, UniProt P42676). Nature of the assay: Inhibition of endopeptidase 24.16, neurotensin, Tris-HCl 25 mM pH 7, 25° C. (Example 16). Format: biochemical. Particulars: read-out: Endopeptidases 24.16 Ki. The protocol: (§1) After incubation, it is interrupted by acidification and the solution analyzed by high performance liquid chromatography (HPLC) using an elution system constituted by a linear gradient of 42 min of 0.1% trifluoroacetic acid and 0.05% triethyl amine in acetonitrile, ranging between 9/1 and 3/1, as described by Checler et al, Biochimie 70, pp.75-82, 1988.
As in example 9, this example studies the inhibiting effect of the compounds of examples 1 to 7 on endopeptidase 24.16 using neurotensin as the substrate and operating in the same way, except that use is made of a Tris-HCl, 25 mM, pH 7 buffer and a temperature of 25° C.

A further assay concerns leucine aminopeptidase. Nature of the assay: Effect on leucine aminopeptidase, substrate Leu-7AMC, HPLC (Example 13). Format: biochemical. Particulars: 1 μmole/l of inhibitor, 15 min, 37° C. The protocol:
After incubating for 15 min, the reaction medium is analyzed by HPLC.

Assay [4] deals with T2, endopeptidase 24.15 (Rattus norvegicus, UniProt P24155). Briefly: Inhibition of endopeptidase 24.15, substrate Bz-Gly-Ala-Ala-Phe-pAB, HPLC (Example 10). Format: biochemical. Particulars: 37° C. The method, then: Following incubation, acidification and HPLC analysis on an inverse phase take place using a linear gradient elution system of 63 min of 0.1% trifluoroacetic acid and 0.05% triethyl amine in acetonitrile between 9/1 (v/v) and 5.5/4.5 (v/v), as described by Checler et al in Biochimie 70, pp.75-82, 1988.

Assay [5] concerns the target T1, endopeptidase 24.16. Nature of the assay: Inhibition of endopeptidase 24.16, fluorimetry with substrate Mcc-Pro-Leu-Gly-Pro-DLys-Dnp (Example 8). Format: biochemical. Particulars: 1 h, 37° C., pH 7.5, read-out: inhibition constant Ki. The protocol:
After incubating for 1 h, the solutions are analyzed by fluorimetry, as described by Dauch et al, Biochem. J., 280, pp.421-426, 1991a.

Assay [6] addresses T2, endopeptidase 24.15. Briefly: Inhibition of endopeptidase 24.15, neurotensin, Tris-HCl 25 mM pH 7, 25° C. (Example 17). It is filed as biochemical. Particulars: read-out: Endopeptidases 24.15 Ki. The protocol:
(§2) After incubating for 42 min, acidification and analysis takes place of the liquid phase by HPLC in reverse phase using linear gradients of the trifluoroacetic acid, triethyl amine and acetonitrile system, as in example 3.
As in example 11, this example studies the inhibiting effect of the compounds of examples 1 to 7 on endopeptidase 24.15 using neurotensin as the substrate and working under the same conditions, except that use is made of a Tris-HCl 25 mM, pH 7 buffer and a temperature of 25° C.

Assay [7] concerns the target angiotensin conversion enzyme (Homo sapiens, UniProt P12821). Briefly: Effect on angiotensin conversion enzyme, substrate Hippuryl-His-Leu, HPLC (Example 14). It is filed as biochemical. Particulars: 1 μmole/l of inhibitor, 15 min, 37° C.
Assay [8] addresses T1, endopeptidase 24.16. Nature of the assay: Inhibition of endopeptidase 24.16, neurotensin as substrate, HPLC (Example 9). It is filed as biochemical. The protocol:
as §1
The results obtained are given in FIGS. 2 to 7, which show chromatograms obtained by measuring the optical density at 230 nm as a function of time (min).

Assay [9] deals with T2, endopeptidase 24.15. Nature of the assay: Inhibition of endopeptidase 24.15, neurotensin as substrate, HPLC (Example 11). It is filed as biochemical. Particulars: 37° C. The method, then: This example uses the same operating procedure as in example 10, but using neurotensin as the endopeptidase 24.15 substrate.
as §2

The target of the next assay is T3, carboxypeptidase A (Bos taurus, UniProt P00730).
T3 sequence (P00730 111-419): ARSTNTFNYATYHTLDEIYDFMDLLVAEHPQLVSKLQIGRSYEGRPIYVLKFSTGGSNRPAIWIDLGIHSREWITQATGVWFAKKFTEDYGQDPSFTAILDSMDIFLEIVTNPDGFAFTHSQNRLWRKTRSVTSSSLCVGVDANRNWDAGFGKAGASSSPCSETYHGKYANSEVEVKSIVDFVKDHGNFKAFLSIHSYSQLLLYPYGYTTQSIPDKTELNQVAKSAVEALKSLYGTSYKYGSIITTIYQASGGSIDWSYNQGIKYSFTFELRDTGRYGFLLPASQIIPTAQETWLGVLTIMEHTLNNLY
Briefly: Effect on carboxypeptidase A, substrate Hippuryl-Phe, HPLC (Example 12). It is filed as biochemical. Particulars: 1 μmole/l of inhibitor, 15 min, 37° C. The protocol:
After 15 min incubation, the solution is analyzed by HPLC.

“Also recorded” adds a separate entry of the source. Where two headings read alike, the source gives them in different places. Residues, ends and D or L forms follow the SMILES beside them.

T2 sequence (P24155 whole entry): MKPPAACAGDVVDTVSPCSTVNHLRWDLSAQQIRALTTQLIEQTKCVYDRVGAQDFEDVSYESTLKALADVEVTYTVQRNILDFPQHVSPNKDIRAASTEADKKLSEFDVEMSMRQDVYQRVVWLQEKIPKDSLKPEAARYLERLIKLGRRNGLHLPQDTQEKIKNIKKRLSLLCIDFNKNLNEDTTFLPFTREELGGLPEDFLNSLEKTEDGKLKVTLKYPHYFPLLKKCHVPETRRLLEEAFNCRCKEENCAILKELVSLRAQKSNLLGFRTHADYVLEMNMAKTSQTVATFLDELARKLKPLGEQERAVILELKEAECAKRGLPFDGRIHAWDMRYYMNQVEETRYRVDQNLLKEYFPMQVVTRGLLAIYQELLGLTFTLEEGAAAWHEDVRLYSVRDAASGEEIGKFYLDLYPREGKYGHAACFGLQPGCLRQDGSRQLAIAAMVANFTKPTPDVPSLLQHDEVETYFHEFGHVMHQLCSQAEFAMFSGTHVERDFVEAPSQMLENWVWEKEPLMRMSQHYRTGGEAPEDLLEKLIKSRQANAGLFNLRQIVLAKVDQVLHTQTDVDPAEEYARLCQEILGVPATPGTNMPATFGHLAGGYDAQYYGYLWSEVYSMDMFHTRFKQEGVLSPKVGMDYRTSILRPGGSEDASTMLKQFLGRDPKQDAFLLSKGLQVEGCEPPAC
T1 sequence (P42676 38-704): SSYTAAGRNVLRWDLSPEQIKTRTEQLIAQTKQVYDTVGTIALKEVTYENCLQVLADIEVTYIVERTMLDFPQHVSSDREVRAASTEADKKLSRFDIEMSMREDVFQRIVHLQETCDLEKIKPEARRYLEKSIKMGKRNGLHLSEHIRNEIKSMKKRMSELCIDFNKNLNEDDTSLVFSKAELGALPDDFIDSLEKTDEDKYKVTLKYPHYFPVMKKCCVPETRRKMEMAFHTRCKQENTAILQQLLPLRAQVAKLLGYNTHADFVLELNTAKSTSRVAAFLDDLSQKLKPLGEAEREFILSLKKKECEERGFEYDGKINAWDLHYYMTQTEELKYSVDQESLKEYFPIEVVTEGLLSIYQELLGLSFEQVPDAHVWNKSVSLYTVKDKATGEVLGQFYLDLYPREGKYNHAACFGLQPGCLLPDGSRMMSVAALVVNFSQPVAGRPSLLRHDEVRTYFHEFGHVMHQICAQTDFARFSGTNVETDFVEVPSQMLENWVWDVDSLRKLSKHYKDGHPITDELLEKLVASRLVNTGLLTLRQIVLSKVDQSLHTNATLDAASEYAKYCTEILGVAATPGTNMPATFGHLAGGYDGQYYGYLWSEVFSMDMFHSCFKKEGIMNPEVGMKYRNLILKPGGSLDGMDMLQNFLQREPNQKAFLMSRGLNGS
angiotensin conversion enzyme, sequence (P12821 30-1306): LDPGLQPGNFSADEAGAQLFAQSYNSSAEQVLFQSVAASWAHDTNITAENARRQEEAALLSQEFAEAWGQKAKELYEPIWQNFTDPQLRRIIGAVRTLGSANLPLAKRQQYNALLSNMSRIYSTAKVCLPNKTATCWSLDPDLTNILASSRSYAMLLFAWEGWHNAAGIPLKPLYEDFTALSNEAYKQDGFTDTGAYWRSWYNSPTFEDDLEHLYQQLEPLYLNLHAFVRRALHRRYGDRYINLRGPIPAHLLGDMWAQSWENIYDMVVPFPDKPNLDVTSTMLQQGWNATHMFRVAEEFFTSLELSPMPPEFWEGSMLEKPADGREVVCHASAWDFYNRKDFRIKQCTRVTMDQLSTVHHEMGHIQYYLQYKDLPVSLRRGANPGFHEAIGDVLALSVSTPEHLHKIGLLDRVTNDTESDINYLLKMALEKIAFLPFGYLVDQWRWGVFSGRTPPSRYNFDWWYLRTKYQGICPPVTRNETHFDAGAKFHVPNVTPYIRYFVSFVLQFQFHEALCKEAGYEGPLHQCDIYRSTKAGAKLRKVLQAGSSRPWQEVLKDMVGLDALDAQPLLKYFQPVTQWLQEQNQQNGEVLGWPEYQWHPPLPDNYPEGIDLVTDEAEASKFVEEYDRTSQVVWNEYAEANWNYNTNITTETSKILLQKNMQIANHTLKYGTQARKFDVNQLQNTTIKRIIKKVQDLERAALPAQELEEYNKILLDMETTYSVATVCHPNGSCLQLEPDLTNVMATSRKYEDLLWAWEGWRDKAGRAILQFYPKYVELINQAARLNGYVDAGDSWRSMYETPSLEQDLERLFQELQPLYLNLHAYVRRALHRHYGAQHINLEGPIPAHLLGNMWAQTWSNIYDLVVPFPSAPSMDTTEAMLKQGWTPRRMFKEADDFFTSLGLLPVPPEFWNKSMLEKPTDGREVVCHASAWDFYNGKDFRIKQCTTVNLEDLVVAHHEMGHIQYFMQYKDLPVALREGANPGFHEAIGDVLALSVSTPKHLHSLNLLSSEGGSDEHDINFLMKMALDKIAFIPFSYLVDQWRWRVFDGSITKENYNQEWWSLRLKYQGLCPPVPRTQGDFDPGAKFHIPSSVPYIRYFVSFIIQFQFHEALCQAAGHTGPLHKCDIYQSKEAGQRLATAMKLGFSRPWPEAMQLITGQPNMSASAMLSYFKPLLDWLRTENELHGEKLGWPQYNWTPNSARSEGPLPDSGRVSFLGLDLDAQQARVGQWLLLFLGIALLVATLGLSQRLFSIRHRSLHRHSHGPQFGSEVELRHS
endopeptidase 24.16 (Homo sapiens, UniProt Q9BYT8), sequence (Q9BYT8 38-704): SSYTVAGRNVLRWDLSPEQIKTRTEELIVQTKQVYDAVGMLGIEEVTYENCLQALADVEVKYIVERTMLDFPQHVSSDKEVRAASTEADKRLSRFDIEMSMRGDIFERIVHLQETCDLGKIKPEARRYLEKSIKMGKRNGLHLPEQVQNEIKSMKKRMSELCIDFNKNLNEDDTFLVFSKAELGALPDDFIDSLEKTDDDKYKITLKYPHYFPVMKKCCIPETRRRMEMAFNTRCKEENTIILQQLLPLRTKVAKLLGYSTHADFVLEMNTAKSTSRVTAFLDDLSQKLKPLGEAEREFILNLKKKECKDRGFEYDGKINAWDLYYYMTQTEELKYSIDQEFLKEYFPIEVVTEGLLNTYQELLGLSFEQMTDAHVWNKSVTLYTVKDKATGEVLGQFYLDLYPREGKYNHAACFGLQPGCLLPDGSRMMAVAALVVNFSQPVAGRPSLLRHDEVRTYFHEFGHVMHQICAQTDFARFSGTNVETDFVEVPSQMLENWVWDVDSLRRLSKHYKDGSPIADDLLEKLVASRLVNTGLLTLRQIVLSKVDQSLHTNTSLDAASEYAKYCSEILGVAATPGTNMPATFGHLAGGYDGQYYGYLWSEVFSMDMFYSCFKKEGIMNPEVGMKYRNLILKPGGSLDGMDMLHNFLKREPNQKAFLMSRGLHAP
endopeptidase 24.15 (Homo sapiens, UniProt P52888), sequence (P52888 whole entry, species assumed): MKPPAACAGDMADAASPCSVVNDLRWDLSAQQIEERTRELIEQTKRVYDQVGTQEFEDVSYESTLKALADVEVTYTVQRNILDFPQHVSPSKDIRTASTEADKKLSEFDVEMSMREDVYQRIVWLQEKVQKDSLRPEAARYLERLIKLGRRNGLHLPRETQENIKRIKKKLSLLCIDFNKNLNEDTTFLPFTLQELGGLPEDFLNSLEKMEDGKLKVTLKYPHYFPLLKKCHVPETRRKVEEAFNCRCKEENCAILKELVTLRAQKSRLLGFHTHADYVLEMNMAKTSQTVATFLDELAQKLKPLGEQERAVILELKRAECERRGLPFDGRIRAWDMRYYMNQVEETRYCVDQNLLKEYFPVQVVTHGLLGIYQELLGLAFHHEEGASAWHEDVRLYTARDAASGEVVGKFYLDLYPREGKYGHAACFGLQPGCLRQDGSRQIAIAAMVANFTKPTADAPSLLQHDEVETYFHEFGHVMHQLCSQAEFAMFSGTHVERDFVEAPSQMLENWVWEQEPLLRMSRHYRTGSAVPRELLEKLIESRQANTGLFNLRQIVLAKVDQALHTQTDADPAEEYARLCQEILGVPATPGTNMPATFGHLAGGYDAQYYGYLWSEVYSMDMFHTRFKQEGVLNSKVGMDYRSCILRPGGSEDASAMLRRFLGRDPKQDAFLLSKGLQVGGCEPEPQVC

Take `CC[C@H](C)[C@H](NC(=O)[C@@H]1CCCN1)C(=O)O` [Pro-Ile] (H-Pro-Ile-OH): the “inhibiting action on endopeptidase 24.15” value at endopeptidase 24.15 [1] (at a concentration as high as 5 mN) is given as “no inhibiting action”. Moreover, the Ki at endopeptidase 24.16 [2] (Eur. J. Biochem. 202, 1991b, read-out: Ki inhibition of endopeptidase 24.16) was 90000 nM.

With `C[C@H](NC(=O)[C@H](C)NC(CCc1ccccc1)C(=O)O)C(=O)N[C@@H](Cc1ccc(O)cc1)C(=O)Nc1ccc(C(=O)O)cc1` (stereo partly drawn) [CPP-Ala-Ala-Tyr-pAB], the Ki at endopeptidase 24.15 [1] (Orlowski et al, Biochemistry 27, 1988, read-out: inhibition constant, endopeptidase 24.15) was 16 nM; at endopeptidase 24.16 [2] (Biochem. J. 280, 1991, read-out: inhibition constant, endopeptidase 24.16) it was 1000 nM.

With phosphodiepryl O3, the “inhibition of endopeptidase 24.11” value in the assay with endopeptidase 24.11 is listed as “no inhibition; also recorded: no effect”. The Ki at endopeptidase 24.16 [3] stood at 0.44 nM; on endopeptidase 24.15 [4], 5 nM; at endopeptidase 24.16 [5] it was 0.3 nM; at endopeptidase 24.15 [6], 1.6 nM; on endopeptidase 24.16 [8] (substrate neurotensin, 37° C., pH 7.5) it was 0.9 nM; at endopeptidase 24.15 [9] (read-out: inhibition constant Ki), 7.5 nM. The leucine aminopeptidase inhibition entry with leucine aminopeptidase is on record as “no inhibition; also recorded: no effect”. Further, the figures for the IC50 on endopeptidase 24.15 [4] and against endopeptidase 24.15 [9] were 5 nM and 100 nM, respectively. Further, the “inhibition of the angiotensin conversion enzyme” value in assay [7] is listed as “no inhibition; also recorded: no effect”. Moreover, the “effectiveness compared with the Ki of the known inhibitor Pro-Ile” value at endopeptidase 24.16 [8] (Ki 0.9 nM versus Pro-Ile 90 μM) is on record as 100,000 times. The “carboxypeptidase A inhibition” value on carboxypeptidase A is “no carboxypeptidase A inhibition; also recorded: no effect”.

(Values after patent publication US5677281A, “Use of peptide derivatives for the preparation of medicaments inhibiting endopeptidases 24.15 and 24.16” (Commissariat a l'Energie Atomique, priority 1992, dated 1997).)
